We go through three compounds from patent US20040034028A1, “4-(biphenylcarbonylamino)piperidine derivatives as mtp inhibitors” (priority 2000, published 2004).

The target in data set [1] is T1, microsomal triglyceride transfer protein (MTP) (Mesocricetus auratus, UniProt P55158).
T1 construct: The supernatant containing the soluble MTP is dialysed; from tissue; host or cells: golden hamster liver microsomes
T1 sequence (P55158 19-895): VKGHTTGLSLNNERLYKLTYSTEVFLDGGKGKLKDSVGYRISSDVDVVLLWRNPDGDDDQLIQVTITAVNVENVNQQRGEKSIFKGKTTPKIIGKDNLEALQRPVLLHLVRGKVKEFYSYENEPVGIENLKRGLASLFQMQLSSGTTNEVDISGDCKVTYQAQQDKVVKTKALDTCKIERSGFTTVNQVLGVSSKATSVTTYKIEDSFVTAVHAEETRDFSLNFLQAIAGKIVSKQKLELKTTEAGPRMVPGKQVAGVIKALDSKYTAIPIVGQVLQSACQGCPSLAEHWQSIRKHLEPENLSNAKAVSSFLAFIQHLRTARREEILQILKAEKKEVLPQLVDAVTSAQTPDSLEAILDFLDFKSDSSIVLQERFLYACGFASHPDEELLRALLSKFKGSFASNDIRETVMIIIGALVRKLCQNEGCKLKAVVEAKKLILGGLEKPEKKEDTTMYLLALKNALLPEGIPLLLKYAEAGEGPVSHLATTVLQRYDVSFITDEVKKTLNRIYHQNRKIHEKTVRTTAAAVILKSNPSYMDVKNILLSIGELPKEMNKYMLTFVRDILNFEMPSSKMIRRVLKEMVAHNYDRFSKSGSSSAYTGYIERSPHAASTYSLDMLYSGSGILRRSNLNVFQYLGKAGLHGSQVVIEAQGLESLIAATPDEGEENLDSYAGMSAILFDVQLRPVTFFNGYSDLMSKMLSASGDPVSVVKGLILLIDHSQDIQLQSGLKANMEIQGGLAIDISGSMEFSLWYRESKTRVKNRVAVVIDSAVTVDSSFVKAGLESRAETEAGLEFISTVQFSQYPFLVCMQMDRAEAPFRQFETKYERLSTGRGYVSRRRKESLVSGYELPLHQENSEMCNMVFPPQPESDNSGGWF
In words: Inhibition of the activity of MTP (transfer of labelled triglyceride, SPA). The data set is classed as biochemical, golden hamster. Particulars: hamster liver MTP, [3H]-trioleine donor liposomes, biot-LDL acceptor, 18-24 hours at 37° C.; read-out: IC50, concentration which allows a 50% inhibition of MTP. How it is done: Analysis of th inhibition of the activity of MTP The inhibition of the activity of microsomal triglyceride transfer protein MTP) was tested using the following protocal.
The inhibition of the activity of MTP with a compound may be quantified by observing the inhibition of the transfer of a labeled triglyceride, from a donor particle to an acceptor particle, in the presence of MTP. The procedure for preparing MTP is based on the method by Wetterau and Zilversmit (Biochem. Biophys. Acta (1986) 875 610). A few grams of golden hamster liver are taken and then rinsed several times in a 250 mM sucrose solution at 0° C. All the following steps proceed at +4° C. A 50% homogenate in 250 mM sucrose is prepared using a Teflon mill and then centrifuged for 10 minutes at 10 000×g at +4° C. The supernatant is then centrifuged at 105 000×g for 75 minutes at +4° C. The supematant is removed and the microsomal pellet is taken up in 3 ml (per gram of starting liver) of 150 mM pH 8.0 Tris/HCl. 1 ml aliquot fractions are stored at −80° C. until use.
After thawing a fraction of microsomes (1 ml), 12 ml of refrigerated 50 mM Tris/HCl, 50 mM KCl, 5 mM MgCl2, pH 7.4 buffers and 1.2 ml of deoxycholate (0.54% in water) are added. After incubating for 30 minutes at +4° C. with gentle agitation, the suspension is centrifuged at 105 000×g for 75 minutes. The supernatant containing the soluble MTP is dialysed against 150 mM Tris/HCl, 40 mM NaCl, 1 mM EDTA, 0.02% sodium azide, pH 7.4 buffer (5 times one litre over 2-3 days). […]
The acceptor particles are biotinylated low-density lipoproteins (biot-LDL). […] After incubating for 18-24 hours at 37° C. the reaction is quenched by adding 100 μl of Amersham SPA (Scintillation Proximity Assay) beads coupled to steptavidin and the radioactivity is counted using a Top Count (Packard) at least one hour later. The inhibition of the transfer of triglycerides by a compound is reflected by a reduction in the radioactivity transferred. The percentage of inhibition for a given compound is determined relative to controls which contain no compounds in the reaction mixture. […]

Data set [2] concerns secretion of apo B in Hep G2 cells. In words: Inhibition of the secretion of apo B in the Hep G2 human cell line (ELISA). It counts as cell-based. Particulars: HepG2, 24 hours incubation, sandwich ELISA for human apo B, read-out: IC50, concentration which produces a 50% inhibition of the secretion of apo B in the Hep G2 cells. How it is done: Analysis of the secretion of apo B in the Hep G2 human cell line:
The activity of a compound according to the invention may be evaluated by measuring the inhibition of the secretion of apo B in Hep G2 cells.
The Hep G2 cells (ECACC—number 85011430) are used as a model in the study of the in vitro hepatic secretion of lipoproteins (Dixon J. and Ginsberg H.—J. Lipid. Res.—1993, 34:167-179).
The Hep G2 cells are cultured in a Dulbecco's modified Eagle medium containing 10% foetal calf serum (DMEM and FCS—Gibco) in 96-well plates in an atmosphere of 5% carbon dioxide for 24 hours (about 70% confluence).
The test compounds are dissolved at 2 or 10 mM in dimethyl sulphoxide (DMSO). Serial dilutions (1:3.16) are performed in DMSO and added (1:200—Robot Multim Beckman) to the growth medium (200 microlitres) and finally incubated for 24 hours in the various wells containing the Hep G2 cells.
The 24-hour culture supernatant diluted to 1:5 (phosphate-buffered saline: PBS containing 1% bovine serum albumin) is tested according to a sandwich ELISA method which is specific for human apo B.
The results are expressed in terms of IC50, namely the concentration which produces a 50% inhibition of the secretion of apo B in the Hep G2 cells.
In general terms: In an ELISA, binding on a coated surface is turned into a signal by an enzyme label.

A word on the melting point: it is the temperature, or range, at which the solid turns liquid.

In turn, `Cc1cccc(CN2CCC(NC(=O)c3ccccc3-c3ccc(C(F)(F)F)cc3)CC2)n1` [A-5, 1-[(6-methyl-2-pyridyl)methyl]-4-[(4′-trifluoromethyl-2-biphenyl)carbonylamino]-piperidine] gave a melting point of 170 °C. For the same compound, the IC50 in data set [1] was 65 nM. In addition, the IC50 in data set [2] amounted to 3 nM.
As for `Cc1ncccc1CN1CCC(NC(=O)c2ccccc2-c2ccc(C(F)(F)F)cc2)CC1` [A-7, 1-[(2-methyl-3-pyridyl)methyl]-4-[(4′-trifluoromethyl-2-biphenyl)carbonylamino]-piperidine], the results for the IC50 in data set [1] and in data set [2] were 84 nM and 74 nM, respectively.
As to `O=C(NC1CCN(Cc2ccc3ccccc3n2)CC1)c1ccccc1-c1ccc(C(F)(F)F)cc1` [A-8, 1-(2-quinolylmethyl)-4-[(4′-trifluoromethyl-2-biphenyl)carbonylamino]-piperidine], the melting point stood at 210 °C. Moreover, the IC50 in data set [1] amounted to 26 nM. In addition, in data set [2], the IC50 came out at 2 nM.
